Assay type in all cases: in vivo
Assay [1] relates to Leptosphaeria nodorum. The assay is described as follows: Wheat Glume Blotch (LEPTNO) disease control. The note with it: Parastagonospora nodorum, topical, 24 h, 1 Day Protectant, read-out: Disease Control LEPTNO 1 DP. How it is done: Technical grades of materials were dissolved in acetone, which were then mixed with nine volumes of water containing 110 ppm Triton X-100. The fungicide solutions were applied onto wheat seedlings using an automated booth sprayer to run-off. All sprayed plants were allowed to air dry prior to further handling. All fungicides were evaluated using the aforementioned method for their activity vs. all target diseases. Wheat leaf blotch and brown rust activity were also evaluated using track spray applications, in which case the fungicides were formulated as EC formulations, containing 0.1% Trycol 5941 in the spray solutions. Wheat plants (variety Yuma) were grown from seed in a greenhouse in 50% mineral soil/50% soil-less Metro mix until the first leaf was fully emerged, with 7-10 seedlings per pot. These plants were inoculated with an aqueous spore suspension of Septoria tritici either prior to or after fungicide treatments. After inoculation the plants were kept in 100% relative humidity (one day in a dark dew chamber followed by two to three days in a lighted dew chamber at 20° C.) to permit spores to germinate and infect the leaf. The plants were then transferred to a greenhouse set at 20° C. for disease to develop. When disease symptoms were fully expressed on the 1st leaves of untreated plants, infection levels were assessed on a scale of 0 to 100 percent disease severity. Percent disease control was calculated using the ratio of disease severity on treated plants relative to untreated plants. Wheat plants (variety Yuma) were grown from seed in a greenhouse in 50% mineral soil/50% soil-less Metro mix until the first leaf was fully emerged, with 7-10 seedlings per pot. These plants were inoculated with an aqueous spore suspension of Leptosphaeria nodorum 24 hr after fungicide treatments. After inoculation the plants were kept in 100% relative humidity (one day in a dark dew chamber followed by two days in a lighted dew chamber at 20° C.) to permit spores to germinate and infect the leaf. The plants were then transferred to a greenhouse set at 20° C. for disease to develop. Fungicide formulation, application and disease assessment followed the procedures as described in the Example A.

The subject of assay [2] is Cercospora beticola. The assay is described as follows: Leaf Spot of Sugar Beets (CERCBE) disease control. The following applies: Cercospora beticola, topical, 24 h, 1 Day Protectant, sugar beet, read-out: Disease Control CERCBE 1 DP. Here is the method: Technical grades of materials were dissolved in acetone, which were then mixed with nine volumes of water containing 110 ppm Triton X-100. The fungicide solutions were applied onto wheat seedlings using an automated booth sprayer to run-off. All sprayed plants were allowed to air dry prior to further handling. All fungicides were evaluated using the aforementioned method for their activity vs. all target diseases. Wheat leaf blotch and brown rust activity were also evaluated using track spray applications, in which case the fungicides were formulated as EC formulations, containing 0.1% Trycol 5941 in the spray solutions. Wheat plants (variety Yuma) were grown from seed in a greenhouse in 50% mineral soil/50% soil-less Metro mix until the first leaf was fully emerged, with 7-10 seedlings per pot. These plants were inoculated with an aqueous spore suspension of Septoria tritici either prior to or after fungicide treatments. After inoculation the plants were kept in 100% relative humidity (one day in a dark dew chamber followed by two to three days in a lighted dew chamber at 20° C.) to permit spores to germinate and infect the leaf. The plants were then transferred to a greenhouse set at 20° C. for disease to develop. When disease symptoms were fully expressed on the 1st leaves of untreated plants, infection levels were assessed on a scale of 0 to 100 percent disease severity. Percent disease control was calculated using the ratio of disease severity on treated plants relative to untreated plants. Sugar beet plants (variety HH88) were grown in soil-less Metro mix and trimmed regularly to maintain a uniform plant size prior to test. Plants were inoculated with a spore suspension 24 hr after fungicide treatments. Inoculated plants were kept in a dew chamber at 22° C. for 48 hr then incubated in a greenhouse set at 24° C. under a clear plastic hood with bottom ventilation until disease symptoms were fully expressed. Fungicide formulation, application and disease assessment on the sprayed leaves followed the procedures as described in the Example A.

For assay [3], the system named is Blumeria graminis f. sp. hordei; Synonym: Erysiphe graminis f. sp. hordei. The experiment in a line: Barley Powdery Mildew (ERYSGH) disease control. The note with it: Blumeria graminis, 24 h, 1 Day Protectant, read-out: Disease Control ERYSGH 1 DP. Here is the method: Technical grades of materials were dissolved in acetone, which were then mixed with nine volumes of water containing 110 ppm Triton X-100. The fungicide solutions were applied onto wheat seedlings using an automated booth sprayer to run-off. All sprayed plants were allowed to air dry prior to further handling. All fungicides were evaluated using the aforementioned method for their activity vs. all target diseases. Wheat leaf blotch and brown rust activity were also evaluated using track spray applications, in which case the fungicides were formulated as EC formulations, containing 0.1% Trycol 5941 in the spray solutions. Wheat plants (variety Yuma) were grown from seed in a greenhouse in 50% mineral soil/50% soil-less Metro mix until the first leaf was fully emerged, with 7-10 seedlings per pot. These plants were inoculated with an aqueous spore suspension of Septoria tritici either prior to or after fungicide treatments. After inoculation the plants were kept in 100% relative humidity (one day in a dark dew chamber followed by two to three days in a lighted dew chamber at 20° C.) to permit spores to germinate and infect the leaf. The plants were then transferred to a greenhouse set at 20° C. for disease to develop. When disease symptoms were fully expressed on the 1st leaves of untreated plants, infection levels were assessed on a scale of 0 to 100 percent disease severity. Percent disease control was calculated using the ratio of disease severity on treated plants relative to untreated plants. Barley seedlings (variety Harrington) were propagated in soil-less Metro mix, with each pot having 8 to 12 plants, and used in the test when first leaf was fully emerged. Test plants were inoculated by dusting with infected stock plants 24 hr after fungicide treatments. After inoculation the plants were kept in a greenhouse set at 20° C. for disease to develop. Fungicide formulation, application and disease assessment on the sprayed leaves followed the procedures as described in the Example A.

In assay [4] the test system is Phakopsora pachyrhizi. The assay is described as follows: Asian Soybean Rust (PHAKPA) disease control. The note with it: Phakopsora pachyrhizi, topical. How it is done: Technical grades of materials were dissolved in acetone, which were then mixed with nine volumes of water containing 0.011% Tween 20. The fungicide solutions were applied onto soybean seedlings using an automated booth sprayer to run-off. All sprayed plants were allowed to air dry prior to further handling.
Soybean plants (variety Williams 82) were grown in soil-less Metro mix, with one plant per pot. Two weeks old seedlings were used for testing. Plants were inoculated either 3 days prior to or 1 day after fungicide treatments. Plants were incubated for 24 h in a dark dew room at 22° C. and 100% RH then transferred to a growth room at 23° C. for disease to develop. Disease severity was assessed on the sprayed leaves.

The mark [5] stands for this setting: 24 h, 1 Day Protectant, read-out: Disease Control PHAKPA 1DP.
Where [6] appears, read: 72 h, 3 Day Curative, read-out: Disease Control PHAKPA 3DC.

Read-outs that look alike come from different tables or passages of the source.

Consider `CCO[C@@H]1[C@@H](Cc2ccccc2)CCC[C@H](NC(=O)c2nccc(OC)c2OC(C)=O)C(=O)O[C@H]1C` [Compound F87], for which the pest or weed control at 100 ppm in assay [1], in assay [2] and in assay [3] was 80 to 100% each time.

Turning to `COCC[C@H]1CCC[C@H](NC(=O)c2nccc(OC)c2OCOC(C)=O)C(=O)O[C@@H](C)[C@@H]1Oc1ccccc1` [Compound F130], the figures for the pest or weed control at 100 ppm in assay [1], in assay [2] and in assay [3] were 80 to 100%, 0 to 80% and 0 to 80%, respectively. Further, the pest or weed control at 25 ppm in assay [4] (setting [5]) and in assay [4] (setting [6]) was 80 to 100% throughout.

For the molecule `CCCO[C@@H]1[C@@H](CCC(C)C)CCC[C@H](NC(=O)c2nccc(OC)c2OC(C)=O)C(=O)O[C@H]1C` [Compound F64], the pest or weed control at 100 ppm in assay [1], in assay [2] and in assay [3] was 80 to 100% each time. Besides, the pest or weed control at 25 ppm in assay [4] (setting [5]) and in assay [4] (setting [6]) was 80 to 100% throughout.

With `C=C[C@H]1CCC[C@H](NC(=O)c2nccc(OC)c2OC(C)=O)C(=O)O[C@@H](C)[C@@H]1Oc1ccccc1` [Compound F86], the pest or weed control at 100 ppm in assay [1] was 80 to 100%; in assay [2], 80 to 100%; in assay [3], 0 to 80%. In addition, the pest or weed control at 25 ppm was in the range of 80 to 100% in assay [4] (setting [5]) and 0 to 80% in assay [4] (setting [6]).

`COc1ccnc(C(=O)N[C@H]2CCC[C@H](Cc3ccccc3)[C@@H](OCC(C)C)[C@H](C)OC2=O)c1OCOC(=O)C(C)C` [Compound F151]: the pest or weed control at 100 ppm in assay [1], in assay [2] and in assay [3] was 80 to 100% in each case. The pest or weed control at 25 ppm in assay [4] (setting [5]) and in assay [4] (setting [6]) was 80 to 100% each time.

For `COc1ccnc(C(=O)N[C@H]2CCC[C@H](Cc3ccccc3)[C@@H](OCC(C)C)[C@H](C)OC2=O)c1OC(C)=O` [Compound F70], the pest or weed control at 100 ppm in assay [1], in assay [2] and in assay [3] was 80 to 100% each time. Moreover, the results for the pest or weed control at 25 ppm in assay [4] (setting [5]) and in assay [4] (setting [6]) were 80 to 100% and 0 to 80%, respectively.

In the case of `COc1ccnc(C(=O)N[C@H]2CCC[C@H](CC3CCCC3)[C@@H](OCC3CC3)[C@H](C)OC2=O)c1OCOC(C)=O` [Compound F117], the pest or weed control at 100 ppm in assay [1], in assay [2] and in assay [3] was 80 to 100% each time. Moreover, the pest or weed control at 25 ppm in assay [4] (setting [5]) and in assay [4] (setting [6]) was 80 to 100% in each case.

On to `COc1ccnc(C(=O)N[C@H]2CCC[C@H](Cc3ccccc3)[C@@H](Oc3ccccc3)[C@H](C)OC2=O)c1OCOC(C)=O` [Compound F108], for which the pest or weed control at 100 ppm in assay [1] fell in the range of 80 to 100%; in assay [2] it was 80 to 100%; in assay [3], 0 to 80%.

In the case of `CCCO[C@@H]1[C@@H](Cc2ccccc2)CCC[C@H](NC(=O)c2nccc(OC)c2OCOC(=O)COCC)C(=O)O[C@H]1C` [Compound F174], the pest or weed control at 100 ppm in assay [1], in assay [2] and in assay [3] was 80 to 100% throughout. Further, the pest or weed control at 25 ppm in assay [4] (setting [5]) was 80 to 100%; in assay [4] (setting [6]), 0 to 80%.

For the molecule `COCC[C@H]1CCC[C@H](NC(=O)c2nccc(OC)c2OC(C)=O)C(=O)O[C@@H](C)[C@@H]1Oc1ccccc1` [Compound F78], the pest or weed control at 100 ppm in assay [1] lay within 80 to 100%; in assay [2] it was 80 to 100%; in assay [3], 0 to 80%. Also, the pest or weed control at 25 ppm in assay [4] (setting [5]) and in assay [4] (setting [6]) was 80 to 100% each time.

On to `COc1ccnc(C(=O)N[C@H]2CCC[C@H](Cc3ccc(F)cc3F)[C@@H](OCC(C)C)[C@H](C)OC2=O)c1OCOC(C)=O` [Compound F145], for which the pest or weed control at 100 ppm in assay [1], in assay [2] and in assay [3] was 80 to 100% in each case. Besides, the values for the pest or weed control at 25 ppm in assay [4] (setting [5]) and in assay [4] (setting [6]) were 80 to 100% and 0 to 80%, respectively.

For `CCCO[C@@H]1[C@@H](CCC(C)C)CCC[C@H](NC(=O)c2nccc(OC)c2OCOC(=O)COCC)C(=O)O[C@H]1C` [Compound F161], the pest or weed control at 100 ppm in assay [1], in assay [2] and in assay [3] was 80 to 100% in each case. For the same molecule, the pest or weed control at 25 ppm in assay [4] (setting [5]) and in assay [4] (setting [6]) was 80 to 100% each time.

Turning to `C=C[C@H]1CCC[C@H](NC(=O)c2nccc(OC)c2OCOC(C)=O)C(=O)O[C@@H](C)[C@@H]1Oc1ccccc1` [Compound F146], the pest or weed control at 100 ppm in assay [1] was in the range of 80 to 100%; in assay [2], 80 to 100%; in assay [3], 0 to 80%. For the same molecule, the pest or weed control at 25 ppm in assay [4] (setting [5]) and in assay [4] (setting [6]) was 80 to 100% in each case.

Consider `CCCO[C@@H]1[C@@H](Cc2ccccc2)CCC[C@H](NC(=O)c2nccc(OC)c2OC(C)=O)C(=O)O[C@H]1C` [Compound F88], for which the pest or weed control at 100 ppm in assay [1], in assay [2] and in assay [3] was 80 to 100% in each case.

On to `COc1ccnc(C(=O)N[C@H]2CCC[C@H](Cc3ccccc3)[C@@H](OC3CCCC3)[C@H](C)OC2=O)c1OCOC(C)=O` [Compound F110], for which the pest or weed control at 100 ppm in assay [1] and in assay [3] was 80 to 100% each time.

In the case of `CCCO[C@@H]1[C@@H](Cc2ccccc2)CCC[C@H](NC(=O)c2nccc(OC)c2OC(=O)CCOC)C(=O)O[C@H]1C` [Compound F198], the pest or weed control at 100 ppm in assay [1], in assay [2] and in assay [3] was 80 to 100% in each case.
